According to patent publication US20090305954A1, “HISTIDINE-CONTAINING DIASTEREOMERIC PEPTIDES AND USES THEREOF” (Yeda Research and Development Co. Ltd., priority 2005, published 2009):
Square brackets hold non-standard residues; d marks the D form. Peptide text beside a SMILES is read from it.

How the values were obtained:
[1] = test system: Murine Lewis lung carcinoma (LLC) cell line; experiment: XTT proliferation (cytotoxicity) assay, LLC; format: cell-based
Protocol: (§1) The CL1 human prostate carcinoma (PC) cell line is an androgen-independent (AI) subclone of LNCaP cell line, which was generated by culturing androgen-dependent (AD) LNCaP cells in charcoal-stripped, […], as described (Patel et al. 2000). 22RV1 human PC cells are AI sub-clones of the AD prostatic adenocarcinoma CWR22 xenograft (Sramkoski et al. 1999). CL1 and 22RV1 (ATCC, USA) were grown in RPMI-1640 supplemented with 10% FCS (Biological Industries, Beit Haemek, Israel). PC3 and DU145 are androgen-insensitive (AI) (non-responsive), invasive human prostate cancer cell lines. NIH-3T3 mouse fibroblast cell lines (ATCC, USA) were grown in DMEM supplemented with 10% BS. Murine Lewis lung carcinoma (LLC) cell lines were also grown in DMEM medium supplemented with 10% fetal calf serum and antibiotics under the same conditions as above.
(§2) The anticancer activity of the diastereomers 1, 5 and 11-16, 36-39, 42 and 44 was examined against human CL1 prostate cancer, murine LLC (Lewis lung carcinoma), DU 145 and PC3 cell lines. The cell selectivity of the diastereomeric peptides was also studied by examining their effect on NIH-3T3 normal mouse fibroblasts cell line.
(§3) A 96-well plate (Falcon) was used for the XTT proliferation assay. Cancer cells were grown for 24 hours (day 1) in RPMI-1640 medium ([…] cells/100 μl for LLC, CL1, 22RVI, DU 145 and PC3, respectively) supplemented with 10% fetal calf serum and antibiotics, at 37° C., in humidified atmosphere at 5% CO2 and 95% air, resulting in growth medium pH of 7.4. NIH-3T3 fibroblast cells (1×10^4 cells/100 μl) were grown in DMEM medium supplemented with 10% bovine calf serum and antibiotics under the same conditions as described above for the cancerous cells. Wells in the last two rows served as blanks (medium only, for measuring the background color of the medium) and 100% survival controls (cells and medium only without treatment), respectively.
(§4) In day 2, the peptides were dissolved in sterile PBS to a concentration of 200 μM (or 500 μM). The medium in the assay wells was replaced with 100 μl serum free medium. For the assays at pH 6, the medium was initially concentrated (×5 or ×10) and then diluted with double distilled water and addition of sodium carbonate. Before reaching the correct dilution, the medium was adjusted to pH 6 and then more water was added to reach the final dilution. The cells were grown in physiological pH, and the acidic pH was used only during the 24 hours incubation with the peptides. A sign for the correct acidity was a light yellow color of the medium. In line A of the plate, 160 μl of serum free medium was added, if the initial peptide concentration was 500 μM.
(§5) Peptide solutions, 100 μl (or 40 μl) were added to each assay well in line A, such that the final concentration of the peptide was […] and the volume 200 μl. The medium in the wells was mixed with multichannel pipette 5 times and 100 μl of it were transferred to the next row of wells (line B), to give a peptide concentration of 50 μM. The double dilution of the peptides continued downstream the plate in the same manner. The plates were then incubated for 24 h.
(§6) In day 3, XTT reaction solution was prepared by adding to 100 μl aliquots of activation solution (sodium 3′-[1-(phenyl-aminocarbonyl)-3,4-tetrazolium]-bis(4-methoxy-6-nitro) benzene sulfonic acid hydrate and N-methyl dibenzopyrazine methyl sulfate; mixed in a proportion of 50:1) (protected from light and kept in −20° C.), the substrate. 50 μl of XTT reaction solution were added to each well and the plates were incubated for 2 hours (37° C. and 5% CO2+95% air. In cases the incubation was not enough for the creation of the color, it was extended for up to 24 hours). The optical density was read at wavelength of 450 nm in an ELISA plate reader. Cell viability was determined relative to the control and final results were recorded. The results were confirmed using replications in at least three independent experiments. […]

[2] = Acute toxicity test in mice (intravenous); format: in vivo; settings: for mortality: mice, i.v., one dose per day for 2 days
Protocol: Acute toxicity of peptides 1, 13 and 16 was examined by intravenously injecting mice (n=3), each with one dose per day for 2 days of 0.5 ml solution containing peptides 1, 13 or 16 at 3, 9, 15, 20 and 30 mg/kg of body weight.
A week after injecting the peptides, blood samples were taken from the survived mice. […] Thus, the peptides 13 and 16 of the invention are not toxic even when administered at concentrations considerably higher than those necessary for their anticancer activity.

[3] = test system: CL1 human prostate carcinoma cell line; experiment: XTT proliferation (cytotoxicity) assay, CL1; format: cell-based
Protocol: as §1, §2, §3, §4, §5, §6

[4] = test system: MDA-MB-231 breast tumor metastases in lymph nodes and lungs; experiment: Inhibition of formation of lung and lymph node metastases derived from breast cancer; format: in vivo, SCID/NCr mice
Description: Monitoring of solid metastases derived for breast tumor was done by in vivo fluorescence using IVIS as described above in (iii). At the end of the treatment (day 38), the mice were killed, and the lungs and lymph nodes were removed and monitored for fluorescence of metastases derived from the breast cancer. For metastases quantification, the lungs and right lymph nodes were excised and fixed in 4% buffered formaldehyde. Paraffin-embedded 5-μm sections were stained with H&E. The percentage of metastatic cell area of total section area was calculated using the Image-Pro plus 4.1 software. The dissected lungs and lymph nodes were analyzed by histology. […] Metastasis quantification was done according to areas from three different sections of each organ (P<0.005).

22RV1 human PC cells = experiment: XTT proliferation (cytotoxicity) assay, 22RV1; format: cell-based
Protocol: as §1, §3, §4, §5
In day 3, XTT reaction solution was prepared by adding to 100 μl aliquots of activation solution (sodium 3′-[1-(phenyl-aminocarbonyl)-3,4-tetrazolium]-bis(4-methoxy-6-nitro) benzene sulfonic acid hydrate and N-methyl dibenzopyrazine methyl sulfate; mixed in a proportion of 50:1) (protected from light and kept in −20° C.), the substrate. 50 μl of XTT reaction solution were added to each well and the plates were incubated for 2 hours (37° C. and 5% CO2+95% air. In cases the incubation was not enough for the creation of the color, it was extended for up to 24 hours). The optical density was read at wavelength of 450 nm in an ELISA plate reader. Cell viability was determined relative to the control and final results were recorded. The results were confirmed using replications in at least three independent experiments. The LC50 for each peptide was obtained from the curve of cell viability versus concentration of peptide and taken from the concentration at which cell viability was 50%. The data shown in Table 1 are for only one experiment, but representative of all replications.

Compound: CC(C)C[C@H](NC(=O)[C@H](CC(C)C)NC(=O)[C@@H](CCCCN)NC(=O)[C@H](CC(C)C)NC(=O)[C@H](CC(C)C)NC(=O)[C@H](Cc1c[nH]cn1)NC(=O)[C@@H](CCCCN)NC(=O)[C@@H](CC(C)C)NC(=O)[C@H](CC(C)C)NC(=O)[C@@H](CCCCN)NC(=O)[C@H](Cc1c[nH]cn1)NC(=O)[C@H](CC(C)C)NC(=O)[C@@H](CC(C)C)NC(=O)[C@H](CCCCN)NC(=O)[C@@H](N)CC(C)C)C(N)=O [Peptide 13] (H-LK[dL]LH[dK]L[dL][dK]HLL[dK]LL-NH2)
- Lethal Concentration (LC50) ([1]; pH 6, 24 h): 12.5 mg/L
- Lethal Concentration (LC50) ([1]; pH 7.4, 24 h): 12.5 mg/L
- mortality ([2]; 3 mg/kg): No mortality
- mortality ([2]; 9 mg/kg): No mortality
- mortality ([2]; 15 mg/kg): no mortality
- mortality ([2]; 20 mg/kg): no mortality
- blood differential and biochemistry tests ([2]; survived mice, a week after injection): in the range of normal values
- potency compared with diastereomer 1 ([3]; CL1, pH 6.0): similarly or significantly more potent
- Lethal Concentration (LC50) ([3]; CL1, pH 6, 24 h): 6.25 mg/L
- Lethal Concentration (LC50) ([3]; CL1, pH 7.4, 24 h): 6.25 mg/L
- lymph node metastasis fluorescence intensity ([4]; systemic administration): significant reduction
- histology of lungs and lymph nodes: population by cancer cells ([4]; vs control untreated mice, P<0.005): much less densely populated
- Lethal Concentration (LC50) (22RV1 human PC cells; 22RV1, pH 6, 24 h): 12.5 mg/L
- Lethal Concentration (LC50) (22RV1 human PC cells; 22RV1, pH 7.4, 24 h): 12.5 mg/L
